Legend:
barnyard grass [1] = assay: Test Example 3: herbicidal effect by foliage application, Wagner pot (Table 18, symbol H); type: in vivo, barnyard grass (Echinochloa crus-galli); details: 320 g/ha
Method in brief: (§1)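 Plants were sown in alluvial soil held under 0.1–0.5 cm standing water and grown 14 days in a greenhouse at 25–30 °C. An emulsifiable formulation, water-diluted to the set dose, was then sprayed onto the foliage, and effects were scored three weeks later using previously defined criteria.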

Chinese sprangletop = assay: Test Example 3: herbicidal effect by foliage application, Wagner pot (Table 18, symbol D); type: in vivo, chinese sprangletop (Leptochloa chinensis); details: 320 g/ha
Method in brief: as §1

rice flat sedge = assay: Test Example 3: herbicidal effect by foliage application, Wagner pot (Table 18, symbol E); type: in vivo, rice flat sedge (Cyperus iria); details: 320 g/ha
Method in brief: as §1

southern crabgrass [2] = assay: Test Example 4: herbicidal effect by soil treatment (Table 19, symbol F); type: in vivo, southern crabgrass (Digitaria ciliaris); details: amount of applied herbicide 320 g/ha
Method in brief: (§2)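 In this soil treatment, the formulated compound reached the seeds only through the soil: seeds were buried about 1.5 cm deep in sterilized diluvial soil, then the diluted emulsion was sprayed over the surface. After three weeks at 25° C. to 30° C. in a greenhouse, effects were graded on criteria from an earlier test.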

green foxtail [3] = assay: Test Example 4: herbicidal effect by soil treatment (Table 19, symbol G); type: in vivo, green foxtail (Setaria viridis); details: amount of applied herbicide 320 g/ha
Method in brief: as §2

barnyard grass [4] = assay: Test Example 4: herbicidal effect by soil treatment (Table 19, symbol H); type: in vivo, barnyard grass (Echinochloa crus-galli); details: amount of applied herbicide 320 g/ha
Method in brief: as §2

wild oat [5] = assay: Test Example 4: herbicidal effect by soil treatment (Table 19, symbol I); type: in vivo, wild oat (Avena fatua); details: amount of applied herbicide 320 g/ha
Method in brief: as §2

blackgrass [6] = assay: Test Example 4: herbicidal effect by soil treatment (Table 19, symbol J); type: in vivo, blackgrass (Alopecurus myosuroides); details: amount of applied herbicide 320 g/ha
Method in brief: as §2

Italian ryegrass [7] = assay: Test Example 4: herbicidal effect by soil treatment (Table 19, symbol K); type: in vivo, Italian ryegrass (Lolium multiflorum); details: amount of applied herbicide 320 g/ha
Method in brief: as §2

windgrass [8] = assay: Test Example 4: herbicidal effect by soil treatment (Table 19, symbol L); type: in vivo, windgrass (Apera spica-venti); details: amount of applied herbicide 320 g/ha
Method in brief: as §2

velvetleaf [9] = assay: Test Example 4: herbicidal effect by soil treatment (Table 19, symbol M); type: in vivo, velvetleaf (Abutilon theophrasti); details: amount of applied herbicide 320 g/ha
Method in brief: as §2

redroot pigweed [10] = assay: Test Example 4: herbicidal effect by soil treatment (Table 19, symbol N); type: in vivo, redroot pigweed (Amaranthus retroflexus); details: amount of applied herbicide 320 g/ha
Method in brief: as §2

lambsquarters [11] = assay: Test Example 4: herbicidal effect by soil treatment (Table 19, symbol O); type: in vivo, lambsquarters (Chenopodium album); details: amount of applied herbicide 320 g/ha
Method in brief: as §2

chickweed [12] = assay: Test Example 4: herbicidal effect by soil treatment (Table 19, symbol P); type: in vivo, common chickweed (Stellaria media); details: amount of applied herbicide 320 g/ha
Method in brief: as §2

persian speedwell [13] = assay: Test Example 4: herbicidal effect by soil treatment (Table 19, symbol R); type: in vivo, Persian speedwell (Veronica persica); details: amount of applied herbicide 320 g/ha
Method in brief: as §2

southern crabgrass [14] = assay: Test Example 5: herbicidal effect by foliage application, plastic box (Table 20, symbol F); type: in vivo, southern crabgrass (Digitaria ciliaris); details: foliage application after 14-day growth, evaluated three weeks after application
Method in brief: (§3)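 Plants were sown into sterilized diluvial soil under about 1.5 cm cover and kept in a greenhouse at 25° C. to 30° C. Fourteen days on, foliage received an even spray of the diluted emulsion. Herbicidal or crop effect was judged three weeks afterwards.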

green foxtail [15] = assay: Test Example 5: herbicidal effect by foliage application, plastic box (Table 20, symbol G); type: in vivo, green foxtail (Setaria viridis); details: foliage application after 14-day growth, evaluated three weeks after application
Method in brief: as §3

barnyard grass [16] = assay: Test Example 5: herbicidal effect by foliage application, plastic box (Table 20, symbol H); type: in vivo, barnyard grass (Echinochloa crus-galli); details: foliage application after 14-day growth, evaluated three weeks after application
Method in brief: as §3

wild oat [17] = assay: Test Example 5: herbicidal effect by foliage application, plastic box (Table 20, symbol I); type: in vivo, wild oat (Avena fatua); details: foliage application after 14-day growth, evaluated three weeks after application
Method in brief: as §3

blackgrass [18] = assay: Test Example 5: herbicidal effect by foliage application, plastic box (Table 20, symbol J); type: in vivo, blackgrass (Alopecurus myosuroides); details: foliage application after 14-day growth, evaluated three weeks after application
Method in brief: as §3

Italian ryegrass [19] = assay: Test Example 5: herbicidal effect by foliage application, plastic box (Table 20, symbol K); type: in vivo, Italian ryegrass (Lolium multiflorum); details: foliage application after 14-day growth, evaluated three weeks after application
Method in brief: as §3

windgrass [20] = assay: Test Example 5: herbicidal effect by foliage application, plastic box (Table 20, symbol L); type: in vivo, windgrass (Apera spica-venti); details: foliage application after 14-day growth, evaluated three weeks after application
Method in brief: as §3

velvetleaf [21] = assay: Test Example 5: herbicidal effect by foliage application, plastic box (Table 20, symbol M); type: in vivo, velvetleaf (Abutilon theophrasti); details: foliage application after 14-day growth, evaluated three weeks after application
Method in brief: as §3

redroot pigweed [22] = assay: Test Example 5: herbicidal effect by foliage application, plastic box (Table 20, symbol N); type: in vivo, redroot pigweed (Amaranthus retroflexus); details: foliage application after 14-day growth, evaluated three weeks after application
Method in brief: as §3

lambsquarters [23] = assay: Test Example 5: herbicidal effect by foliage application, plastic box (Table 20, symbol O); type: in vivo, lambsquarters (Chenopodium album); details: foliage application after 14-day growth, evaluated three weeks after application
Method in brief: as §3

chickweed [24] = assay: Test Example 5: herbicidal effect by foliage application, plastic box (Table 20, symbol P); type: in vivo, common chickweed (Stellaria media); details: foliage application after 14-day growth, evaluated three weeks after application
Method in brief: as §3

persian speedwell [25] = assay: Test Example 5: herbicidal effect by foliage application, plastic box (Table 20, symbol R); type: in vivo, Persian speedwell (Veronica persica); details: foliage application after 14-day growth, evaluated three weeks after application
Method in brief: as §3

[26] = amount of applied herbicide 320 g/ha

| SMILES | herbicidal effect on barnyard grass (H) (barnyard grass [1]) | herbicidal effect on Chinese sprangletop (D) (Chinese sprangletop) | herbicidal effect on rice flat sedge (E) (rice flat sedge) | Herbicidal effect by soil treatment, F: southern crabgrass (southern crabgrass [2]) | Herbicidal effect by soil treatment, G: green foxtail (green foxtail [3]) | Herbicidal effect by soil treatment, H: barnyard grass (barnyard grass [4]) | Herbicidal effect by soil treatment, I: wild oat (wild oat [5]) | Herbicidal effect by soil treatment, J: blackgrass (blackgrass [6]) | Herbicidal effect by soil treatment, K: Italian ryegrass (Italian ryegrass [7]) | Herbicidal effect by soil treatment, L: windgrass (windgrass [8]) | Herbicidal effect by soil treatment, M: velvetleaf (velvetleaf [9]) | Herbicidal effect by soil treatment, N: redroot pigweed (redroot pigweed [10]) | Herbicidal effect by soil treatment, O: lambsquarters (lambsquarters [11]) | Herbicidal effect by soil treatment, P: chickweed (chickweed [12]) | Herbicidal effect by soil treatment, R: persian speedwell (persian speedwell [13]) | also measured |
| --- | --- | --- | --- | --- | --- | --- | --- | --- | --- | --- | --- | --- | --- | --- | --- | --- |
| CCCC(=O)Oc1c(C)nn(C)c(=O)c1-c1c(-c2ccccc2F)sc2c(Cl)cccc12 [4-059] | 4 (Herbicidal rate of 70% or more and less than 90%) | 4 (Herbicidal rate of 70% or more and less than 90%) | 4 (Herbicidal rate of 70% or more and less than 90%) | 0 (Herbicidal rate of 5% or less (almost no effect)) | 0 (Herbicidal rate of 5% or less (almost no effect)) | 0 (Herbicidal rate of 5% or less (almost no effect)) | 0 (Herbicidal rate of 5% or less (almost no effect)) | 0 (Herbicidal rate of 5% or less (almost no effect)) | 0 (Herbicidal rate of 5% or less (almost no effect)) | 0 (Herbicidal rate of 5% or less (almost no effect)) | 0 (Herbicidal rate of 5% or less (almost no effect)) | 0 (Herbicidal rate of 5% or less (almost no effect)) | 0 (Herbicidal rate of 5% or less (almost no effect)) | 4 (Herbicidal rate of 70% or more and less than 90%) | 4 (Herbicidal rate of 70% or more and less than 90%) | herbicidal effect on F: southern crabgrass (evaluation grade 0-5) (southern crabgrass [14]; 320 g/ha): 0 (Herbicidal rate of 5% or less (almost no effect)); herbicidal effect on G: green foxtail (evaluation grade 0-5) (green foxtail [15]; 320 g/ha): 0 (Herbicidal rate of 5% or less (almost no effect)); herbicidal effect on H: barnyard grass (evaluation grade 0-5) (barnyard grass [16]; 320 g/ha): 0 (Herbicidal rate of 5% or less (almost no effect)); herbicidal effect on I: wild oat (evaluation grade 0-5) (wild oat [17]; 320 g/ha): 1 (Herbicidal rate of 5% or more and less than 20%); herbicidal effect on J: blackgrass (evaluation grade 0-5) (blackgrass [18]; 320 g/ha): 0 (Herbicidal rate of 5% or less (almost no effect)); herbicidal effect on K: Italian ryegrass (evaluation grade 0-5) (Italian ryegrass [19]; 320 g/ha): 0 (Herbicidal rate of 5% or less (almost no effect)); herbicidal effect on L: windgrass (evaluation grade 0-5) (windgrass [20]; 320 g/ha): 0 (Herbicidal rate of 5% or less (almost no effect)); herbicidal effect on M: velvetleaf (evaluation grade 0-5) (velvetleaf [21]; 320 g/ha): 3 (Herbicidal rate of 40% or more and less than 70%); herbicidal effect on N: redroot pigweed (evaluation grade 0-5) (redroot pigweed [22]; 320 g/ha): 3 (Herbicidal rate of 40% or more and less than 70%); herbicidal effect on O: lambsquarters (evaluation grade 0-5) (lambsquarters [23]; 320 g/ha): 2 (Herbicidal rate of 20% or more and less than 40%); herbicidal effect on P: chickweed (evaluation grade 0-5) (chickweed [24]; 320 g/ha): 5 (Herbicidal rate of 90% or more (almost completely withered)); herbicidal effect on R: persian speedwell (evaluation grade 0-5) (persian speedwell [25]; 320 g/ha): 4 (Herbicidal rate of 70% or more and less than 90%) |
| CSc1ccc(-c2sc3c(Cl)cccc3c2-c2c(O)c(C)nn(C)c2=O)cc1 [4-088] | 5 (Herbicidal rate of 90% or more (almost completely withered)) | 3 (Herbicidal rate of 40% or more and less than 70%) | 5 (Herbicidal rate of 90% or more (almost completely withered)) | 0 (Herbicidal rate of 5% or less (almost no effect)) | 0 (Herbicidal rate of 5% or less (almost no effect)) | 0 (Herbicidal rate of 5% or less (almost no effect)) | 0 (Herbicidal rate of 5% or less (almost no effect)) | 0 (Herbicidal rate of 5% or less (almost no effect)) | 3 (Herbicidal rate of 40% or more and less than 70%) | 0 (Herbicidal rate of 5% or less (almost no effect)) | 0 (Herbicidal rate of 5% or less (almost no effect)) | 5 (Herbicidal rate of 90% or more (almost completely withered)) | 4 (Herbicidal rate of 70% or more and less than 90%) | 0 (Herbicidal rate of 5% or less (almost no effect)) | 3 (Herbicidal rate of 40% or more and less than 70%) | Herbicidal effect by foliage application, F: southern crabgrass (southern crabgrass [14]; [26]): 0 (Herbicidal rate of 5% or less (almost no effect)); Herbicidal effect by foliage application, G: green foxtail (green foxtail [15]; [26]): 2 (Herbicidal rate of 20% or more and less than 40%); Herbicidal effect by foliage application, H: barnyard grass (barnyard grass [16]; [26]): 3 (Herbicidal rate of 40% or more and less than 70%); Herbicidal effect by foliage application, I: wild oat (wild oat [17]; [26]): 4 (Herbicidal rate of 70% or more and less than 90%); Herbicidal effect by foliage application, J: blackgrass (blackgrass [18]; [26]): 2 (Herbicidal rate of 20% or more and less than 40%); Herbicidal effect by foliage application, K: Italian ryegrass (Italian ryegrass [19]; [26]): 4 (Herbicidal rate of 70% or more and less than 90%); Herbicidal effect by foliage application, L: windgrass (windgrass [20]; [26]): 5 (Herbicidal rate of 90% or more (almost completely withered)); Herbicidal effect by foliage application, M: velvetleaf (velvetleaf [21]; [26]): 5 (Herbicidal rate of 90% or more (almost completely withered)); Herbicidal effect by foliage application, N: redroot pigweed (redroot pigweed [22]; [26]): 5 (Herbicidal rate of 90% or more (almost completely withered)); Herbicidal effect by foliage application, O: lambsquarters (lambsquarters [23]; [26]): 5 (Herbicidal rate of 90% or more (almost completely withered)); Herbicidal effect by foliage application, P: chickweed (chickweed [24]; [26]): 5 (Herbicidal rate of 90% or more (almost completely withered)); Herbicidal effect by foliage application, R: persian speedwell (persian speedwell [25]; [26]): 5 (Herbicidal rate of 90% or more (almost completely withered)) |
